These results are taken from ChEMBL document CHEMBL1142499 (Bioorg Med Chem Lett, 2008).

Data set [1] deals with 3',5'-cyclic-AMP phosphodiesterase 4A (Homo sapiens, UniProt P27815). The experiment in a line: Intrinsic inhibition of GST-fused human PDE4A expressed in SF9 cells.
Data set [2] deals with Blood. The data set is described as follows: Inhibition of LPS-induced TNFalpha production in human whole blood. In kind it is functional, tissue-based.
Data set [3] addresses Voltage-gated inwardly rectifying potassium channel KCNH2 (Homo sapiens, UniProt Q12809).
Data set [4] can be described thus: Half life in orally and iv dosed rat. Conditions: in vivo. In kind it is ADME, organism-based.
A short description of data set [5]: Half life in orally and iv dosed dog. In kind it is ADME, organism-based, Canis lupus familiaris. The note with it: in vivo.
Data set [6] can be described thus: Half life in orally and iv dosed Squirrel monkey. Conditions: in vivo. In kind it is ADME, organism-based, Saimiri sciureus.
Data set [7] in a line: Cmax in po dosed squirrel monkey assessed after first episode of emesis. In kind it is ADME, organism-based, Saimiri sciureus. Also on record: route oral. Conditions: in vivo.
Data set [8] in a line: Bioavailability in orally and iv dosed rat. In kind it is ADME, organism-based. The note with it: in vivo, po.
Data set [9] is described as follows: Bioavailability in orally and iv dosed dog. Format: ADME, organism-based, Canis lupus familiaris. The note with it: in vivo, po.
Data set [10] is described as follows: Bioavailability in orally and iv dosed Squirrel monkey. In kind it is ADME, organism-based, Saimiri sciureus. The note with it: in vivo, po.
The test system of data set [11] is Ovis aries. The experiment in a line: Inhibition of late-phase antigen-induced bronchoconstriction in ascaris-sensitive sheep at 0.5 mg/kg, iv daily for 4 days and antigen challenged after 2 hrs post dose on 4th day. In kind it is functional.
Data set [12] relates to Blood. The experiment in a line: Inhibition of LPS-induced TNFalpha production in Squirrel monkey whole blood. In kind it is functional, tissue-based. The note with it: Saimiri sciureus.
Data set [13] deals with Cytochrome P450 2C9 (Homo sapiens, UniProt P11712). The data set is described as follows: Inhibition of CYP2C9. Format: ADME.
The test system of data set [14] is Cavia porcellus. The data set is described as follows: Inhibition of ovalbumin-induced bronchoconstriction in conscious guinea pig at 0.03 mg/kg, ip administered 30 mins before ovalbumin challenge. Format: functional. Conditions: route intraperitoneal.
The nature of data set [15]: Ratio of emesis Cmax in Squirrel monkey at 2 mg/kg, po to IC50 for LPS-induced TNFalpha production in Squirrel monkey whole blood. In kind it is functional, Saimiri sciureus.

Voltage-gated inwardly rectifying potassium channel KCNH2, sequence (Q12809 whole entry): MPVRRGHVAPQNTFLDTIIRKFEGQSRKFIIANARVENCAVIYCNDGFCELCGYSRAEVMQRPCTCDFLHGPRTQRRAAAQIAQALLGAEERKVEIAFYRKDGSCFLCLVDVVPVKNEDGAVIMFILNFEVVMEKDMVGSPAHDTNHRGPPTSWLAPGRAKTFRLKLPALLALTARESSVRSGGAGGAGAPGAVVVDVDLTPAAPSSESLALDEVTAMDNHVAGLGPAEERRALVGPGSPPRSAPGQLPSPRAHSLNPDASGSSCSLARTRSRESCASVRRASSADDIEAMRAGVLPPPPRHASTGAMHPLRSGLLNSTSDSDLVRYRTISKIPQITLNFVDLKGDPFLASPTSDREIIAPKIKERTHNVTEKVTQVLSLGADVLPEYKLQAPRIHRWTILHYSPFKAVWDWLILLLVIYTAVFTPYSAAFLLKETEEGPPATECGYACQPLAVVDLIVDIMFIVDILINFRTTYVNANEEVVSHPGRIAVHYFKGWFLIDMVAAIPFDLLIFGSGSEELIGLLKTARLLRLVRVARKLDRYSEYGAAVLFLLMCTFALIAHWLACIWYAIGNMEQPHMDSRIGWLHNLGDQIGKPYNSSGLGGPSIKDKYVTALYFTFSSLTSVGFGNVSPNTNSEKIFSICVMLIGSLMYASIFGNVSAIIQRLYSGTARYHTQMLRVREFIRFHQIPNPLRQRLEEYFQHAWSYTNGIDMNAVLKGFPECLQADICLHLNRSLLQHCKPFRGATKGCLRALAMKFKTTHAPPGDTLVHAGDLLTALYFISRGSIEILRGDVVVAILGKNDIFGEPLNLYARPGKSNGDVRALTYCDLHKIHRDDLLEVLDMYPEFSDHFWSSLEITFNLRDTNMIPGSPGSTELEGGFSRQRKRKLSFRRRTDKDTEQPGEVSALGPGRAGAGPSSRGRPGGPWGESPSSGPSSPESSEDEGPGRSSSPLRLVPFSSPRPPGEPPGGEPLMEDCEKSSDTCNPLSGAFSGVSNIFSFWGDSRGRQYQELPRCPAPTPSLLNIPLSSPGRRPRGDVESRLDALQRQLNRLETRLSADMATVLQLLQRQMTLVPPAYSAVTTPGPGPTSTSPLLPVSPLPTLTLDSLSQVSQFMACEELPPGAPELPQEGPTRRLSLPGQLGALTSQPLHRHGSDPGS
3',5'-cyclic-AMP phosphodiesterase 4A, sequence (P27815 whole entry, the tested form may be a part): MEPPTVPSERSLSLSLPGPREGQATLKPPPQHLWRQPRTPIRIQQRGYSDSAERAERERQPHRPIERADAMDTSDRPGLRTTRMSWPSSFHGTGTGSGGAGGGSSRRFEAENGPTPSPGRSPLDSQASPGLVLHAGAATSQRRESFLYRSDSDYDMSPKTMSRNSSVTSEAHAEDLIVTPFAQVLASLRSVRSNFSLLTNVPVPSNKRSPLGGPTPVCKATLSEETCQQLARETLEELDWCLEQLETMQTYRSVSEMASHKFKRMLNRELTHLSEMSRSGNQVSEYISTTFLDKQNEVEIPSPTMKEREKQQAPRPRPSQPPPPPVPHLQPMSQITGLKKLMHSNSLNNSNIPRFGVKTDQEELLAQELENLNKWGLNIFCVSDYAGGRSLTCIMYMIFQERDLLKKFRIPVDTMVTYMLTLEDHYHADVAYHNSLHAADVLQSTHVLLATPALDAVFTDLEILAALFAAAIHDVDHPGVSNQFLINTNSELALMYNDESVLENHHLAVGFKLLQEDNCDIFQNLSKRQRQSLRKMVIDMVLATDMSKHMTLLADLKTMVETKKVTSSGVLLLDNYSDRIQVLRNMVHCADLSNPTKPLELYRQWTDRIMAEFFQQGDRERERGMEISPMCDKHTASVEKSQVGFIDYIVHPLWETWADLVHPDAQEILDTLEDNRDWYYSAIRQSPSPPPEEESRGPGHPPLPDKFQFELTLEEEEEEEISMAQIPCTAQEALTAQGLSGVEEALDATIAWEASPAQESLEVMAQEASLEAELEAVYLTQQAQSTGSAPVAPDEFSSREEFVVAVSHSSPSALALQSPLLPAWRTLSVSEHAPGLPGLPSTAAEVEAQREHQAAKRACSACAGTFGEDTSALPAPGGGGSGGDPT
Cytochrome P450 2C9, sequence (P11712 whole entry): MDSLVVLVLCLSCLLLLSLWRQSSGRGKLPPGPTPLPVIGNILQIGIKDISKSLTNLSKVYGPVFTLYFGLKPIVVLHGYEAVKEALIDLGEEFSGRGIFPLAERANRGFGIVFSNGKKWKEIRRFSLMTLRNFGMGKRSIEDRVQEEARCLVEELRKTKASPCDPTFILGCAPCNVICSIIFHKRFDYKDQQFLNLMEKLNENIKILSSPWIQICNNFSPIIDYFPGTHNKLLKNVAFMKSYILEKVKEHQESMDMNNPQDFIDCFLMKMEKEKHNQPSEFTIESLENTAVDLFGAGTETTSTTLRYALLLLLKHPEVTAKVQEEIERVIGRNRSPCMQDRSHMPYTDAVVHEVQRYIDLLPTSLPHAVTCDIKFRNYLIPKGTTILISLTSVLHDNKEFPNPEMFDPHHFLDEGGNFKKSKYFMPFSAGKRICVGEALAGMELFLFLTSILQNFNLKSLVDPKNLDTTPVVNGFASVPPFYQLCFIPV

For `O=C(Nc1c(Cl)cncc1Cl)c1cn(-c2ccc(Cl)cc2)c2ncccc2c1=O`, the IC50 (commonly the concentration at which inhibition is half-maximal) in data set [1] amounted to 0.45 nM; in [2], 180 nM; in data set [3] it was 198 nM.

For `Cc1ccc2c(=O)c(C(=O)NC(C)C)cn(-c3cccc(Br)c3)c2n1`, the concentration for half-maximal inhibition (IC50) in [1] is over 1000 nM.

Regarding `Cc1noc(/C(=C/c2cccc(-c3cc(C(C)(C)S(C)(=O)=O)cc4cccnc34)c2)c2ccc(S(C)(=O)=O)cc2)n1`, the half-life (as a rule, how long it takes for the measured level to halve) in data set [4] is 4 h; in data set [5], 5 h; in data set [6], 4 h. The Cmax (commonly the maximum level reached in the sampled fluid or tissue) in [7] worked out at 3 µM. In addition, the values for the bioavailability in data set [8], in data set [9] and in data set [10] were 95%, 55% and 33%, respectively. In data set [11], testing at 0.5 mg/kg gave an inhibition in vivo of 92%.

Compound `Cc1ccc(-n2cc(C(=O)NC(C)C)c(=O)c3cccnc32)cc1Br` displayed a half-maximal inhibitory concentration (IC50) in data set [1] of 66.5 nM.

`CC(C)(O)c1ccc(-c2cccc(-n3cc(C(=O)NC4CC4)c(=O)c4cccnc43)c2)cn1` came in with an IC50 in data set [2] of 66 nM. For the same compound, the half-life in data set [4] was under 0.5 h.

`O=C(NC1CC1)c1cn(-c2cccc(C#Cc3ccc[n+]([O-])c3)c2)c2ncccc2c1=O` [MK-0873]: the IC50 was determined as 6.7 nM in data set [1], 180 nM in [2], 23 nM in data set [12] and 41000 nM in data set [13]. Besides, the figures for the half-life in data set [4], in [5] and in [6] were 2 h, 2 h and 5 h, respectively. Also, the concentration in [7] peaked (Cmax) at 5.1 µM. Also, the results for the bioavailability in [8], in data set [9] and in [10] were 98%, 100% and 38%, respectively. The inhibition in vivo (as a rule, the percentage by which the read-out fell short of the control) at 0.03 mg/kg in data set [14] was 65%. Besides, at 0.5 mg/kg the inhibition in vivo in [11] was 84%.

As for `CC(C)NC(=O)c1cn(-c2cccc(-c3ccc(S(C)(=O)=O)cc3)c2)c2ncccc2c1=O`, the IC50 in [1] turned out to be 0.62 nM; in data set [2], 69 nM; in data set [3], 23000 nM.

On to `NC(=O)c1cn(-c2cccc(Br)c2)c2ncccc2c1=O`, for which the IC50 in data set [1] is 141 nM; in data set [3], over 94500 nM.

In the case of `CCOc1cccc(-c2cccc(-n3cc(C(=O)NC(C)C)c(=O)c4cccnc43)c2)c1`, the half-inhibitory concentration (IC50) in data set [1] was 1.54 nM; in [2], 840 nM; in [3], 2700 nM.

Take `CC(C)NC(=O)c1cn(-c2cccc(Br)c2)c2ncccc2c1=O`: the IC50 turned out to be 9.2 nM in data set [1], 700 nM in [2] and 31600 nM in data set [3].

Turning to `CC(=O)c1cccc(-c2cccc(-n3cc(C(=O)Nc4c(Cl)cncc4Cl)c(=O)c4cccnc43)c2)c1`, the half-maximal inhibitory concentration (IC50) in data set [1] was 0.17 nM; in data set [2], 5 nM.

Take `CC(=O)c1ccc(-c2cccc(-n3cc(C(=O)NC(C)C)c(=O)c4cccnc43)c2)cc1`: the IC50 in data set [1] was 0.34 nM; in data set [2], 75 nM.

Consider `CC(C)(O)c1ccc(-c2cccc(-n3cc(C(=O)NC4CC4)c(=O)c4cccnc43)c2)c[n+]1[O-]`, for which the half-inhibitory concentration (IC50) in [1] came to 6.2 nM; in data set [2], 120 nM; in data set [12], 7 nM; in data set [13], 59000 nM; in data set [3], 50100 nM. The values for the half-life in [4], in data set [5] and in data set [6] were 1.5 h, 2 h and 4 h, respectively. In data set [7], this compound came in with a peak concentration (Cmax) of 3.7 µM. Also, the bioavailability (in general, the share of a dose that reaches the circulation, judged against a reference dose that is usually intravenous) was 87% in data set [8], 100% in data set [9] and 33% in data set [10]. The compound also came in with an inhibition in vivo at 0.03 mg/kg in data set [14] of 69%. Further, the inhibition in vivo at 0.5 mg/kg in [11] was found to be 84%. Besides, the Ratio in [15] is 530.

In the case of `CSc1ccc(-c2cccc(-n3cc(C(=O)NC(C)C)c(=O)c4cccnc43)c2)cc1`, the values for the IC50 in [1], in data set [2] and in data set [3] were 0.75 nM, 650 nM and 960 nM, respectively.

Regarding `O=C(NC1CC1)c1cn(-c2cccc(C#Cc3cccnc3)c2)c2ncccc2c1=O`, the figures for the 50% inhibitory concentration (IC50) in data set [2] and in data set [3] were 160 nM and 16700 nM, respectively.

Take `O=C(NC1CC1)c1cn(-c2cccc(-c3cccnc3)c2)c2ncccc2c1=O`: inhibition in data set [2] was half-maximal at 160 nM (IC50).

As to `CC(C)CNC(=O)c1cn(-c2cccc(Br)c2)c2ncccc2c1=O`, the half-inhibitory concentration (IC50) in [1] is 3.54 nM; in data set [2], 2100 nM.

Regarding `CC(C)(O)c1ccc(C#Cc2cccc(-n3cc(C(=O)NC4CC4)c(=O)c4cccnc43)c2)c[n+]1[O-]`, the results for the IC50 in [2] and in data set [3] were 300 nM and 89400 nM, respectively.

As for `CC(C)N(C)C(=O)c1cn(-c2cccc(Br)c2)c2ncccc2c1=O`, in data set [1], the IC50 is over 1000 nM.

Regarding `CC(C)NC(=O)c1cn(-c2ccccc2)c2ncccc2c1=O`, the values for the concentration for half-maximal inhibition (IC50) in data set [1], in data set [2] and in data set [3] were 15.3 nM, 700 nM and 71500 nM, respectively.

On to `O=C(NC1CC1)c1cn(-c2cccc(-c3ccncc3)c2)c2ncccc2c1=O`, for which the IC50 came to 670 nM in data set [2] and 18600 nM in [3].

For the compound `CS(=O)(=O)c1ccc(-c2cccc(-n3cc(C(=O)NC4CC4)c(=O)c4cccnc43)c2)cn1`, the IC50 in data set [2] was found to be 140 nM; in [3] it was 13600 nM.

With `Cc1noc(/C(=C/c2cccc(-n3cc(C(=O)Nc4c(Cl)cncc4Cl)c(=O)c4cccnc43)c2)c2ccc(S(C)(=O)=O)cc2)n1`, the IC50 amounted to 0.06 nM in [1] and 3 nM in data set [2].

Turning to `CC(=O)c1cccc(-c2cccc(-n3cc(C(=O)NC(C)C)c(=O)c4cccnc43)c2)c1`, the results for the concentration for half-maximal inhibition (IC50) in data set [1], in [2] and in data set [3] were 0.37 nM, 470 nM and 6960 nM, respectively.
